Laboratory results reported in PMC8224687, “Lipophilicity, Pharmacokinetic Properties, and Molecular Docking Study on SARS-CoV-2 Target for Betulin Triazole Derivatives with Attached 1,4-Quinone” (Pharmaceutics, 2021).
Like-named read-outs stand apart in the source and are kept apart here.

Tests used:
[1] = Experimental lipophilicity by RP-TLC (RM0, logPTLC, hydrophobic index); conditions: for RM0 (chromatographic parameter of lipophilicity): RP-TLC, acetone / TRIS 0.2 M pH 7.4, extrapolated to zero acetone; for chromatographic logP: logPTLC (experimental lipophilicity); for chromatographic logP / logPTLC (experimental lipophilicity): from RM0 by calibration curve Equation (4); for hydrophobic index (φ0): φ0 = −RM0/b
[2] = pH 7.4
[3] = parameters: method as in PMID 9879505, doi:10.1021/ja00193a003; conditions: literature values of standard substances ref 52, 53; cited from earlier work

Structure (SMILES)	RM0 (chromatographic parameter of lipophilicity) [1]	chromatographic logP [1]	hydrophobic index (φ0) [1]	RM0 (chromatographic parameter of lipophilicity) [2]	logPTLC (experimental lipophilicity) [1]	logPlit [3]	chromatographic logP (physchem)
C=C(C)[C@@H]1CC[C@]2(COC(=O)c3cn(CCCOC4=C(Cl)C(=O)c5cccnc5C4=O)nn3)CC[C@]3(C)C(CCC4[C@@]5(C)CCC(=O)C(C)(C)C5CC[C@]43C)C12 (stereo partly shown) [Compound 2]	3.64	4.71	83.14	–	–	–	–
c1ccc(CCc2ccccc2)cc1 [Dibenzyl, dibenzyl]	–	–	–	3.65	–	–	–
C=C(C)[C@@H]1CC[C@]2(COC(=O)c3cn(CCCOC4=C(Cl)C(=O)c5ccccc5C4=O)nn3)CC[C@]3(C)C(CCC4[C@@]5(C)CC[C@H](O)C(C)(C)C5CC[C@]43C)C12 (stereo partly shown) [Compound 13]	3.78	–	87.13	–	4.87	–	–
C=C(C)[C@@H]1CC[C@]2(COC(=O)c3cn(CCCOC4=C(Cl)C(=O)c5ccccc5C4=O)nn3)CC[C@]3(C)C(CCC4[C@@]5(C)CC[C@H](OC(C)=O)C(C)(C)C5CC[C@]43C)C12 (stereo partly shown) [Compound 15]	4.21	–	85.11	–	5.35	–	–
C=C(C)[C@@H]1CC[C@]2(COC(=O)c3cn(CCCO)nn3)CC[C@]3(C)C(CCC4[C@@]5(C)CC[C@H](OC(C)=O)C(C)(C)C5CC[C@]43C)C12 (stereo partly shown) [Compound 19]	5.07	6.33	86.06	–	–	–	–
C=C(C)[C@@H]1CC[C@]2(COC(=O)c3cn(CCCO)nn3)CC[C@]3(C)C(CCC4[C@@]5(C)CC[C@H](O)C(C)(C)C5CC[C@]43C)C12 (stereo partly shown) [Compound 17]	4.40	5.57	82.62	–	–	–	–
CC(=O)Nc1ccccc1 [Acetanilide, acetanilide, reference compound]	0.55	1.19	–	–	–	–	–
C=C(C)[C@@H]1CC[C@]2(COC(=O)c3cn(CCCOC4=C(Cl)C(=O)c5ccc(C)nc5C4=O)nn3)CC[C@]3(C)C(CCC4[C@@]5(C)CC[C@H](OC(C)=O)C(C)(C)C5CC[C@]43C)C12 (stereo partly shown) [Compound 11]	4.12	–	85.94	–	5.26	–	–
C=C(C)[C@@H]1CC[C@]2(COC(=O)c3cn(CCCO)nn3)CC[C@]3(C)C(CCC4[C@@]5(C)CCC(=O)C(C)(C)C5CC[C@]43C)C12 (stereo partly shown) [Compound 18]	4.54	5.73	83.67	–	–	–	–
C=C(C)[C@@H]1CC[C@]2(COC(=O)c3cn(CCCOC4=C(Cl)C(=O)c5ccccc5C4=O)nn3)CC[C@]3(C)C(CCC4[C@@]5(C)CCC(=O)C(C)(C)C5CC[C@]43C)C12 (stereo partly shown) [Compound 14]	3.84	–	87.76	–	4.93	–	–
Clc1ccc(C(c2ccc(Cl)cc2)C(Cl)(Cl)Cl)cc1 [DDT, dichlorodiphenyltrichloroethane, reference compound]	4.87	–	–	–	6.17	6.01	–
C=C(C)[C@@H]1CC[C@]2(COC(=O)c3cn(CCCOC4=C(Cl)C(=O)c5ccccc5C4=O)nn3)CC[C@]3(C)C(CCC4[C@@]5(C)CC[C@H](OC(=O)CC)C(C)(C)C5CC[C@]43C)C12 (stereo partly shown) [Compound 16]	4.58	5.77	86.18	–	–	–	–
C=C(C)[C@@H]1CC[C@]2(COC(=O)c3cn(CCCOC4=C(Cl)C(=O)c5cccnc5C4=O)nn3)CC[C@]3(C)C(CCC4[C@@]5(C)CC[C@H](OC(=O)CC)C(C)(C)C5CC[C@]43C)C12 (stereo partly shown) [Compound 4]	4.08	5.21	87.00	–	–	–	–
C=C(C)[C@@H]1CC[C@]2(COC(=O)c3cn(CCCOC4=C(Cl)C(=O)c5ccncc5C4=O)nn3)CC[C@]3(C)C(CCC4[C@@]5(C)CC[C@H](O)C(C)(C)C5CC[C@]43C)C12 (stereo partly shown) [Compound 5]	3.56	–	79.81	–	–	–	–
C[C@]12C=CC(=O)C=C1CC[C@@H]1[C@@H]2C(=O)C[C@@]2(C)[C@H]1CC[C@]2(O)C(=O)CO [Prednisone, prednisone, reference compound]	0.73	–	–	–	–	–	1.39
CC(=O)c1ccc(Br)cc1 [4-Bromoacetophenone, 4-bromoacetophenone]	–	–	–	1.89	–	–	–
C=C(C)[C@@H]1CC[C@]2(COC(=O)c3cn(CCCOC4=C(Cl)C(=O)c5ccc(C)nc5C4=O)nn3)CC[C@]3(C)C(CCC4[C@@]5(C)CC[C@H](O)C(C)(C)C5CC[C@]43C)C12 (stereo partly shown) [Compound 9]	3.65	4.72	82.43	–	–	–	–
C=C(C)[C@@H]1CC[C@]2(COC(=O)c3cn(CCCOC4=C(Cl)C(=O)c5ccncc5C4=O)nn3)CC[C@]3(C)C(CCC4[C@@]5(C)CC[C@H](OC(=O)CC)C(C)(C)C5CC[C@]43C)C12 (stereo partly shown) [Compound 8]	4.24	–	88.21	–	5.39	–	–
C=C(C)[C@@H]1CC[C@]2(COC(=O)c3cn(CCCOC4=C(Cl)C(=O)c5ccncc5C4=O)nn3)CC[C@]3(C)C(CCC4[C@@]5(C)CC[C@H](OC(C)=O)C(C)(C)C5CC[C@]43C)C12 (stereo partly shown) [Compound 7]	4.07	5.2	83.48	–	–	–	–
C=C(C)[C@@H]1CC[C@]2(COC(=O)c3cn(CCCOC4=C(Cl)C(=O)c5cccnc5C4=O)nn3)CC[C@]3(C)C(CCC4[C@@]5(C)CC[C@H](OC(C)=O)C(C)(C)C5CC[C@]43C)C12 (stereo partly shown) [Compound 3]	3.97	–	84.76	–	5.08	–	–
C=C(C)[C@@H]1CC[C@]2(COC(=O)c3cn(CCCOC4=C(Cl)C(=O)c5ccncc5C4=O)nn3)CC[C@]3(C)C(CCC4[C@@]5(C)CCC(=O)C(C)(C)C5CC[C@]43C)C12 (stereo partly shown) [Compound 6]	3.59	–	82.83	–	–	–	–
C=C(C)[C@@H]1CC[C@]2(COC(=O)c3cn(CCCO)nn3)CC[C@]3(C)C(CCC4[C@@]5(C)CC[C@H](OC(=O)CC)C(C)(C)C5CC[C@]43C)C12 (stereo partly shown) [Compound 20]	5.26	6.55	87.13	–	–	–	–
C=C(C)[C@@H]1CC[C@]2(COC(=O)c3cn(CCCOC4=C(Cl)C(=O)c5ccc(C)nc5C4=O)nn3)CC[C@]3(C)C(CCC4[C@@]5(C)CC[C@H](OC(=O)CC)C(C)(C)C5CC[C@]43C)C12 (stereo partly shown) [Compound 12]	4.39	–	88.32	–	5.56	–	–
C=C(C)[C@@H]1CC[C@]2(COC(=O)c3cn(CCCOC4=C(Cl)C(=O)c5cccnc5C4=O)nn3)CC[C@]3(C)C(CCC4[C@@]5(C)CC[C@H](O)C(C)(C)C5CC[C@]43C)C12 (stereo partly shown) [Compound 1]	3.51	–	82.40	–	–	–	–
C=C(C)[C@@H]1CC[C@]2(COC(=O)c3cn(CCCOC4=C(Cl)C(=O)c5ccc(C)nc5C4=O)nn3)CC[C@]3(C)C(CCC4[C@@]5(C)CCC(=O)C(C)(C)C5CC[C@]43C)C12 (stereo partly shown) [Compound 10]	3.77	–	83.85	–	–	–	–
c1ccc2cc3ccccc3cc2c1 [Anthracene, anthracene, reference compound]	3.48	4.52	–	–	–	–	–
